The source made the active and inactive calls. No cut-off for these calls is given here.
Columns and labels:
[1] = molecular target: T1, Heat shock protein HSP 90-beta (Homo sapiens, UniProt P08238); test: Binding affinity to human Hsp90 by surface plasmon resonance analysis
[2] = molecular target: T1, Heat shock protein HSP 90-beta; test: Inhibition of human Hsp90 ATPase activity assessed as inhibition of ATP hydrolysis after 60 mins by fluorimetric analysis
[3] = molecular target: T1, Heat shock protein HSP 90-beta; test: Inhibition of human Hsp90 chaperone activity assessed as citrate synthase thermal-induced aggregation at 0.3 uM by fluorimetric analysis

T1 sequence (P08238 whole entry): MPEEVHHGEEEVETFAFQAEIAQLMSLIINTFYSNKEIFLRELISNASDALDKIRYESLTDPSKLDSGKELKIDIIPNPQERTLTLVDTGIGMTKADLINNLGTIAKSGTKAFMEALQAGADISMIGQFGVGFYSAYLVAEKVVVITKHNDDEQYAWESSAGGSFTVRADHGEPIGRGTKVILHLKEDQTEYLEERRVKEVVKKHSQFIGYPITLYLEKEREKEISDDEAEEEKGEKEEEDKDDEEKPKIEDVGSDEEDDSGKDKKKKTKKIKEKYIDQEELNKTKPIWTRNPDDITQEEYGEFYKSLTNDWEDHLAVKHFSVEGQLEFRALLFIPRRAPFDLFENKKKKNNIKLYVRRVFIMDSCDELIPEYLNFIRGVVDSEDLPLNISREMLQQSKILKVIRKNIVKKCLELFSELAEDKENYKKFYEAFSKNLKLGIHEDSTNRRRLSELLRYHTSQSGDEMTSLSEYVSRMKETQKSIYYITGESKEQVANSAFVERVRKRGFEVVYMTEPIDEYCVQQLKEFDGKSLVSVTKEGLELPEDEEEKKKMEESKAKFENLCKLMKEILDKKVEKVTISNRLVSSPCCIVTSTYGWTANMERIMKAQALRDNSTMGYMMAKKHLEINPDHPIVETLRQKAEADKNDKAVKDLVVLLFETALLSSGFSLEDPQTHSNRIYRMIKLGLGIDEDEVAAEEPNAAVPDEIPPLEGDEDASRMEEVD

| Compound | Kd [1] | Kd ([1]; read-out: Kd) [nM] | also measured |
| --- | --- | --- | --- |
| O=C1c2ccccc2C(=O)c2cc(Cn3cc(CCCCc4cn(Cc5ccc6c(c5)C(=O)c5ccccc5C6=O)nn4)nn3)ccc21 | Not Active | – | – |
| c1ccc2cc(Cn3cc(-c4ccc(-c5cn(Cc6ccc7ccccc7c6)nn5)cc4)nn3)ccc2c1 | Not Active | – | – |
| O=C1c2ccccc2C(=O)c2cc(Cn3cc(-c4ccc(-c5cn(Cc6ccc7c(c6)C(=O)c6ccccc6C7=O)nn5)cc4)nn3)ccc21 | Not Active | – | – |
| c1ccc2cc(Cn3cc(CCCCc4cn(Cc5ccc6ccccc6c5)nn4)nn3)ccc2c1 | – | 84 | IC50 [2]: 52 µM; inhibition [2]: Dose-dependent effect; inhibition [3]: Active |
| c1ccc2c(Cn3cc(-c4ccc(-c5cn(Cc6cccc7ccccc67)nn5)cc4)nn3)cccc2c1 | Not Active | – | – |
| c1ccc(-c2ccc(Cn3cc(CN(Cc4cn(Cc5ccc(-c6ccccc6)cc5)nn4)Cc4cn(Cc5ccc(-c6ccccc6)cc5)nn4)nn3)cc2)cc1 | – | 72 | – |
| O=C(c1ccccc1)c1ccc(Cn2cc(-c3ccc(-c4cn(Cc5ccc(C(=O)c6ccccc6)cc5)nn4)cc3)nn2)cc1 | Not Active | – | – |
| O=C(c1ccccc1)c1ccc(Cn2cc(CN(Cc3cn(Cc4ccc(C(=O)c5ccccc5)cc4)nn3)Cc3cn(Cc4ccc(C(=O)c5ccccc5)cc4)nn3)nn2)cc1 | – | 151 | – |
| c1ccc(-c2ccc(Cn3cc(-c4ccc(-c5cn(Cc6ccc(-c7ccccc7)cc6)nn5)cc4)nn3)cc2)cc1 | Not Active | – | – |
| c1ccc2cc(Cn3cc(CN(Cc4cn(Cc5ccc6ccccc6c5)nn4)Cc4cn(Cc5ccc6ccccc6c5)nn4)nn3)ccc2c1 | – | 55 | IC50 [2]: 16 µM; inhibition [2]: Dose-dependent effect; inhibition [3]: Active |
| O=C(c1ccccc1)c1ccc(Cn2cc(CCCCc3cn(Cc4ccc(C(=O)c5ccccc5)cc4)nn3)nn2)cc1 | Not Active | – | – |
| O=C1c2ccccc2C(=O)c2cc(Cn3cc(COCc4cn(Cc5ccc6c(c5)C(=O)c5ccccc5C6=O)nn4)nn3)ccc21 | – | 2.8 | IC50 [2]: 7 µM; inhibition [2]: Dose-dependent effect; inhibition [3]: Active |
| c1ccc2c(Cn3cc(CN(Cc4cn(Cc5cccc6ccccc56)nn4)Cc4cn(Cc5cccc6ccccc56)nn4)nn3)cccc2c1 | – | 201 | – |
| c1ccc(-c2ccc(Cn3cc(CCCCc4cn(Cc5ccc(-c6ccccc6)cc5)nn4)nn3)cc2)cc1 | Not Active | – | – |
| O=C1c2ccccc2C(=O)N1CCCn1cc(CCCCc2cn(CCCN3C(=O)c4ccccc4C3=O)nn2)nn1 | Not Active | – | – |
| O=C1c2ccccc2C(=O)N1CCCn1cc(-c2ccc(-c3cn(CCCN4C(=O)c5ccccc5C4=O)nn3)cc2)nn1 | Not Active | – | – |
| O=C1c2ccccc2C(=O)N1CCCn1cc(CN(Cc2cn(CCCN3C(=O)c4ccccc4C3=O)nn2)Cc2cn(CCCN3C(=O)c4ccccc4C3=O)nn2)nn1 | – | 89 | – |
| c1ccc2c(Cn3cc(COCc4cn(Cc5cccc6ccccc56)nn4)nn3)cccc2c1 | – | 10.3 | – |
| c1ccc2cc(Cn3cc(COCc4cn(Cc5ccc6ccccc6c5)nn4)nn3)ccc2c1 | Not Active | – | – |
| c1ccc(-c2ccc(Cn3cc(COCc4cn(Cc5ccc(-c6ccccc6)cc5)nn4)nn3)cc2)cc1 | – | 237 | – |
| c1ccc2c(Cn3cc(CCCCc4cn(Cc5cccc6ccccc56)nn4)nn3)cccc2c1 | – | 191 | – |
| O=C1c2ccccc2C(=O)N1CCCn1cc(COCc2cn(CCCN3C(=O)c4ccccc4C3=O)nn2)nn1 | – | 3.5 | IC50 [2]: 7 µM; inhibition [2]: Dose-dependent effect; inhibition [3]: Active |
| O=C(c1ccccc1)c1ccc(Cn2cc(COCc3cn(Cc4ccc(C(=O)c5ccccc5)cc4)nn3)nn2)cc1 | – | 3.6 | IC50 [2]: 7 µM; inhibition [2]: Dose-dependent effect; inhibition [3]: Active |
| O=C1c2ccccc2C(=O)c2cc(Cn3cc(CN(Cc4cn(Cc5ccc6c(c5)C(=O)c5ccccc5C6=O)nn4)Cc4cn(Cc5ccc6c(c5)C(=O)c5ccccc5C6=O)nn4)nn3)ccc21 | – | 107 | – |

Reference: ChEMBL document CHEMBL2412974, “Dimeric and trimeric triazole based molecules as a new class of Hsp90 molecular chaperone inhibitors” (Eur J Med Chem, 2013)
